The values that follow come from patent publication US20090018175A1, “Pharmaceutical excipient complex” (priority 2007, published 2009).

The structures appear in SMILES notation. Like-named read-outs stand apart in the source and are kept apart here.

The nature of series [1]: Stability of the tablet produced according to Example 5 (impurity content on storage). In kind it is physicochemical. To be noted: tablet of Example 5, four days at 70° C., 100 percent relative humidity.
Description: As used herein, the term “stable” with reference to candesartan cilexetil relates to candesartan cilexetil having about 0.01% to about 0.5% of desethyl-candesartan (“desethyl-CNS”) impurity present in the total weight of the composition, after storage for four days at a temperature of 65° C. and a relative humidity of 100 percent; and/or having about 0.01% to about 0.5% of 2-N-ethyl candesartan (“2-N-ethyl CNS”) impurity present in the total weight of the composition, after storage for four days at a temperature of 65° C. and a relative humidity of 100 percent; and/or having about 0.01% to about 0.2% of impurities other than desethyl-CNS and 2-N-ethyl CNS present in the total weight of the composition, after storage for four days at a temperature of 65° C. and a relative humidity of 100 percent.
For series [2] the following is noted: cited from earlier work.

As to `CCOc1nc2cccc(C(=O)OC(C)OC(=O)OC3CCCCC3)c2n1Cc1ccc(-c2ccccc2-c2nnn[nH]2)cc1` (racemic) [candesartan cilexetil, (±)-1-[[(cyclohexyloxy)carbonyl]oxy]ethyl-2-ethoxy-1-[[2′-(1H-tetrazol-5-yl)[1,1′biphenyl]-4-yl]methyl]-1H-benzimidazole-7-carboxylate], the “degradation of candesartan cilexetil when tabletted with the excipient complex (conclusion)” value in series [1] is on record as “did not degrade significantly”. In addition, the solubility entry in series [2] (in methanol) and in series [2] (in water) was “sparingly soluble” throughout.
